According to patent US20240093034A1, “FLUORESCENT DYES” (EXOPHARM LIMITED, priority 2020, published 2024):

Experiments:
[1] = tested on: PBMCs; assay: Uptake of dye 2-labelled MSC-EVs by immune cells of the mdMLR assay; assay type: cell-based, human; conditions: 5 days with dye 2-labelled MSC-EVs
Experimental: The MSC-EV preparations were stained with dye 2 of the invention according to the following protocol. Dye 2 was provided as a lyophilised powder. 1 mg of dye 2 was resuspended with 1 mL buffer to a final concentration of […]. Like CFDA-SE, the dye 2 solution was centrifuged for 10 min at 17,000 x g to reduce background noise to a minimum. Briefly, for the EV-labelling 25 μL of the MSC-EV preparations were incubated with 25 μL of a prepared, centrifuged dye 2 solution (0.2 μM) for 1 hour at 37° C. The sample was diluted 1:20 to a final volume of 1 mL prior to analysis. For EV uptake experiments dye 2-labelled MSC-EV preparations were cleared from EV unbound dye 2 by ultrafiltration. Briefly, after labelling with dye 2, the MSC-EVs were washed by via centrifugation at 12,000xg through Vivaspin 500 filters (Sartorius) for 10 min. The retentate was collected as labelled EV sample.
(§1) The immunomodulatory potential of dye 2-labelled and non-labelled MSC-EV preparations were compared in a multi-donor mixed lymphocyte reaction assay (MLR) as described previously (Madel et al., 2020, Independent human mesenchymal stromal cell-derived extracellular vesicle preparations differentially affect symptoms in an advanced murine Graft-versus-Host-Disease model. bioRxiv, 2020.2012.2021.423658). Briefly, Ficoll prepared peripheral blood mononuclear cells (PBMC) of 12 healthy donors were mixed in equal proportions, aliquoted and stored in the vapour phase of liquid nitrogen until usage. After thawing 600,000 cells were seeded per well of a 96-well U-bottom shape plates (Corning, Kaiserslautern, Germany) and cultured in 10% human AB serum (produced in house) and 100 U/mL penicillin and 100 µg/mL streptomycin (Thermo Fisher Scientific) supplemented RPMI 1640 medium (Thermo Fisher Scientific) in a final volume of 200 μL per well, either in the presence or absence of MSC-EV preparations to be tested. After 5 days, cells were harvested, stained with a collection of different fluorescent labelled antibodies (CD4-BV785; BioLegend, San Diego, CA, USA; CD25-PE-Cy5.5; BD Bioscience; and CD54-AF700; EXBIO) and analysed on a Cytoflex flow cytometer (Software CytExpert 2.3, Beckman-Coulter). Activated and non-activated CD4^+ T cells were discriminated by means of their CD25 and CD54 expression, respectively. Typically, 5 μL of MSC-EV preparations to be tested were applied into respective wells. The following antibodies were used to further discriminate subpopulations: CD8-BV650 (BioLegend), CD14-PO (EXBIO), CD19-ECD (Beckman Coulter) and CD56-APC (BioLegend). The evaluation of the data was carried out with the Kaluza software (Version 2.1, Beckman Coulter).
To investigate whether EV labelling with dye 2 of the invention allows the identification of EV-uptaking cells, the labelled EV uptake of the different immune cells within the mdMLR assay was examined. To this end, a pool of PBMCs derived from 12 healthy donors were cultured for 5 days in the presence of dye 2-labelled MSC-EVs (n=3) that had been cleared from excess dye 2 by ultrafiltration. Thereafter, cells were harvested, antibody labelled and analysed by flow cytometry. The content of dye 2-labelled cells within different PBMC subtypes was determined. […] In contrast, only proportions of the different lymphocytes appeared as dye 2 positive cells, i.e. 71% of all CD4^+ T cells (CD4^+ cells), 34% of all CD8^+ T cells (CD8^+ cells), 72% of all B cells (CD19^+ cells) and 15% of all NK cells (CD56^+ cells). […]

[2] = tested on: CD4+ T cells; assay: Multi-donor mixed lymphocyte reaction (mdMLR) assay; assay type: cell-based, human
Excerpt: as §1, with “Activated and non-activated CD4^+ T cells were discriminated by means of their CD25 and CD54 expression, respectively. Typically, 5 μL of MSC-EV preparations to be tested were applied into respective wells. The following antibodies were used to further discriminate subpopulations: CD8-BV650 (BioLegend), CD14-PO (EXBIO), CD19-ECD (Beckman Coulter) and CD56-APC (BioLegend). The evaluation of the data was carried out with the Kaluza software (Version 2.1, Beckman Coulter).” left out

[3] = tested on: NHDF; assay: Imaging human cells labelled with dye (microscopy); assay type: cell-based; conditions: 0.2 μM dye
Experimental: (§2) The cells were imaged to assess incorporation of the dyes according to the following procedure. Cell+dye 2 samples were prepared following the procedure in Example 4 with the following modifications: the cells were seeded with NHDF (not older than P9), human umbilical cord-derived mesenchymal stem cells (UC-MSCs) or bone marrow-derived MSCs (BM-MSCs); and the dye 2 was used in a final concentration of 0.2 μM. Before imaging, each well was washed with 1× HBSS (−) once. 100-200 μL of 1× HBSS (−) was added to each well prior to imaging to make sure the cells are not dried out. The cells were imaged on a Thermo Fisher Evos M5000 microscope equipped with the Texas Red filter. Routinely utilized conditions are (magnification, light, exposure, gain): 10× Texas Red, 22, 146, 105; 20× Texas Red, 12, 133, 64; 40× Texas Red, 36, 79, 40. Settings were held constant for all images taken on the same plate.

[4] = tested on: human umbilical cord-derived mesenchymal stem cells (UC-MSCs); assay: Imaging human cells labelled with dye (microscopy); assay type: cell-based; conditions: 0.2 μM dye
Experimental: as §2

[5] = tested on: bone marrow-derived MSCs (BM-MSCs); assay: Imaging human cells labelled with dye (microscopy); assay type: cell-based; conditions: 0.2 μM dye
Experimental: as §2

[6] = tested on: normal human dermal fibroblasts (NHDF); assay: Labelling of human cells with dyes (plate fluorescence); assay type: cell-based; conditions: 2 μM dye, 1 hr 37° C., washed with HBSS; higher = more incorporation
Experimental: Labelling of human cells with dyes 1-10 was performed according to the following procedure. Each well of a Costar 96 well flat bottom plate was seeded with 5,000 normal human dermal fibroblasts (NHDF; not older than P9) and allowed to attach overnight in full media: fibroblast growth media (Lonza)+2% v/v fetal calf serum. Each dye was diluted 1:50 from a stock of 1 mM with 10 mM L-histidine, 150 mM NaCl, pH 6.0, to a final concentration of 20 μM. The dye was subsequently added to full media at a further 1:10 dilution to a final concentration of 2 μM. The media on the cells was subsequently replaced with the freshly prepared full media containing the dye. For negative controls, an equivalent volume of the diluent solution was added to the cell solution. Cells were incubated for 1 hr at 37° C. and then washed with 1 xHBSS (Hank's balanced salt solution) to remove free dye. Plate was imaged using the CLARIOStar spectrophotometer (5x5 matrix mode, average of 25 data points, 3 wells for each dye). A higher fluorescence indicates a higher amount of incorporation into the cells.

SMILES: CCCCCCCCCCCCCCCCCCN(C)C(=O)c1ccccc1-c1c2ccc(=[N+](CC)CC)cc-2oc2cc(N(CC)CC)ccc12.[Cl-] [Dye 2, Rhodamine B N-methyloctadecylamide]
- dye 2 positive B cells (CD19+ cells) [1]: 72%
- dye 2 positive CD4+ T cells [1]: 71%
- dye 2 positive CD8+ T cells [1]: 34%
- dye 2 positive NK cells (CD56+ cells) [1]: 15%
- dye 2 positive monocytes (CD14+ cells) [1]: 99%
- influence on activation status of CD4+ T cells ([2]; buffer solved dye alone): did not influence the activation status
- reduction in CD4+ T cell activation ([2]; dye 2-labelled MSC-EV preparations (n=3), versus non-labelled): comparable reduction
- labelling of cells (microscopy, FIG. 3(a)) [3]: capable of labelling
- labelling of cells (microscopy, FIG. 3(b)) [4]: capable of labelling
- labelling of cells (microscopy, FIG. 3(c)) [5]: capable of labelling
- FLD [6]: 123449
